Source: patent US20250009737A1, “COMPOUNDS AND METHODS FOR THE TARGETED DEGRADATION OF ANDROGEN RECEPTOR” (Arvinas Operations, Inc., priority 2023, published 2025)
Read-outs that look alike come from different tables or passages of the source.

Legend:
CYP2C8 mRNA = CYP2C8 mRNA induction in cryopreserved human hepatocytes; format: in vitro ADME; conditions: for CYP2C8 mRNA Fold induction: human hepatocytes
CYP2C8 = target: T1, CYP2C8 (Homo sapiens, UniProt P10632); test: Direct and time-dependent CYP2C8 inhibition in pooled human liver microsomes; format: in vitro ADME; conditions: pooled HLM, substrate Amodiaquine 2 μM
T1 construct: evaluated in pooled human liver microsomes (HLM); from tissue; host or cells: pooled human liver microsomes
Experimental: (§1) The induction potential of Compound A on CYP enzymes was assessed in cryopreserved human hepatocytes from three donors. Following treatment for with Compound A at concentrations of 0.03-30 μM for 48 hours, mRNA levels for CYP1A2, 2B6, 2C8, 2C9, 2C19, and 3A4 were determined by semiquantitative real-time polymerase chain reaction (PCR). Test article concentrations during 24-hour incubation were determined. The potential of Compound A to cause direct and time-dependent inhibition (TDI) of the activities of CYP1A2, 2B6, 2C8, 2C9, 2C19, 2D6, and 3A4 was evaluated in pooled human liver microsomes (HLM) at 0.2-15 μM. Probe substrate concentrations around Km were used for direction inhibition and initial TDI assays. For TDI assay, Compound A was pre-incubated with pooled HLM with and without NADPH for 30 minutes prior to incubation with a single concentration of probe substrate.

OATP1B3 = target: T2, OATP1B3 (Homo sapiens, UniProt Q9NPD5); test: OATP1B3 uptake transporter inhibition in MDCKII or HEK293 cells; format: in vitro ADME; set-up: expressed in transfected cells; host or cells: MDCKII or HEK293; conditions: substrate Rosuvastatin (1 μM)
T2 sequence (Q9NPD5 1-702): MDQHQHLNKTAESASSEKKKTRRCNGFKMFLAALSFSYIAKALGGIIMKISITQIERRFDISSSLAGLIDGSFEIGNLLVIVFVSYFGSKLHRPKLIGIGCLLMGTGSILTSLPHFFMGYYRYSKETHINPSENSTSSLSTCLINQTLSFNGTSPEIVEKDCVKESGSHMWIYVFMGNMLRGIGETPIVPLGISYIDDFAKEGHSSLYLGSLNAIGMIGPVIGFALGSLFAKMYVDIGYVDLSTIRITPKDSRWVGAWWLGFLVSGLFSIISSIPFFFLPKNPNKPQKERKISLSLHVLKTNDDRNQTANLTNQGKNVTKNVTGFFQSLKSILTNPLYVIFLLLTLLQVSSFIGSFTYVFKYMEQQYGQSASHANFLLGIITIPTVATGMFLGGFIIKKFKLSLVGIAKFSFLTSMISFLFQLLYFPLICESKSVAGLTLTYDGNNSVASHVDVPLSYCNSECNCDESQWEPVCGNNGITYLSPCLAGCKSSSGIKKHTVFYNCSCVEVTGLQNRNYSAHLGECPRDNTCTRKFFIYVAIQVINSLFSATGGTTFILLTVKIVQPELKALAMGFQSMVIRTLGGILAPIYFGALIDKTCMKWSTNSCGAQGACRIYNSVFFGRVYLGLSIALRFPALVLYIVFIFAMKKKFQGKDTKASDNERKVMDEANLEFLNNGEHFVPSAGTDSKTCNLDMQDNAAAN
Experimental: (§2) In addition, the inhibition potential against efflux transporters (P-glycoprotein (Pgp) and breast cancer resistance protein (BCRP)) and uptake transporters (MATE1, MATE2-K, OATP1B1, OATP1B3, OAT1, OAT3, and OCT2) was assessed using single transporter over-expressed cell monolayers (MDCK II or HEK293) or inside-out vesicles.
(§3) The potential of Compound A to inhibit Pgp or BCRP was tested for bidirectional transport of the probe substrates in Pgp or BCRP-expressed MDCKII and control monolayers at Compound A concentrations of 0.07-5 μM. Pgp and BCR inhibition were tested in inside-out membrane vesicles prepared from HEK293 overexpressing human Pgp and BCR at concentrations of 0.01-9 μM Compound A in the presence of 4 mM MgATP or MgAMP.

CYP2C19 mRNA = CYP2C19 mRNA induction in cryopreserved human hepatocytes; format: in vitro ADME; conditions: 48 hours
CYP2C19 = target: T3, CYP2C19 (Homo sapiens, UniProt P33261); test: Direct and time-dependent CYP2C19 inhibition in pooled human liver microsomes; format: in vitro ADME; conditions: pooled HLM, substrate S-Mephenytoin 20 μM
T3 construct: evaluated in pooled human liver microsomes (HLM); from tissue; host or cells: pooled human liver microsomes
Experimental: as §1

human hepatocytes = test: Hepatocyte viability, upfront MTT assay; format: cell-based; conditions: 0.03-30 μM, after 2 days treatment
Experimental: Positive control inducers behaved as expected (Table 1). Maximal 2.5-8.8-fold induction (4-6% of positive control response) in CYP3A4 mRNA were found at 0.1-0.3 μM in all three donors, and 3.1-fold for CYP2C8 mRNA in one of three lots (donor 3 only) at 0.1 μM (28% of positive control response). The induction response was attenuated at higher concentrations (Table 1).

OATP1B1 = target: T4, OATP1B1 (Homo sapiens, UniProt Q9Y6L6); test: OATP1B1 uptake transporter inhibition in MDCKII or HEK293 cells; format: in vitro ADME; set-up: expressed in transfected cells; host or cells: MDCKII or HEK293; conditions: substrate Rosuvastatin (1 μM)
T4 sequence (Q9Y6L6 1-691): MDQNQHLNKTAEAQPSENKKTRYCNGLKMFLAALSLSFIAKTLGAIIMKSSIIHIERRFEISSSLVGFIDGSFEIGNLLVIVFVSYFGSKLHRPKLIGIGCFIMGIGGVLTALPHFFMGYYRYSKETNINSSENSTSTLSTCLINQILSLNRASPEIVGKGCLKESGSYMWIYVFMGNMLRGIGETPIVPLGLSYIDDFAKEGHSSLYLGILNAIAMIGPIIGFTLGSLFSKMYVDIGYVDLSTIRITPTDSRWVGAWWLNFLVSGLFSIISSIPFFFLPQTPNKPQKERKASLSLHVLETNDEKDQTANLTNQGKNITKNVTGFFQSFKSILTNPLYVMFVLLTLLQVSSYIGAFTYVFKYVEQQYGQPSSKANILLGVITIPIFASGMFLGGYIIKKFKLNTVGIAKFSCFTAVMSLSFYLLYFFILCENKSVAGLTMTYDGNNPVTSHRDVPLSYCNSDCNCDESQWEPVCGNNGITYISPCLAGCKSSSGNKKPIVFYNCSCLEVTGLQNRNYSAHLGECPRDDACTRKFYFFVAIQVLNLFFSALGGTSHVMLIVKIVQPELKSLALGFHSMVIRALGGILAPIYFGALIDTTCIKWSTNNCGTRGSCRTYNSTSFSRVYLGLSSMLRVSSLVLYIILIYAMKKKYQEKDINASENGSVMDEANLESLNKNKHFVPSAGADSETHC
Experimental: as §2, §3

[1] = read-out: IC50, 30 min Pre-incubation
[2] = read-out: IC50, No Pre-incubation

T3 sequence (P33261 whole entry): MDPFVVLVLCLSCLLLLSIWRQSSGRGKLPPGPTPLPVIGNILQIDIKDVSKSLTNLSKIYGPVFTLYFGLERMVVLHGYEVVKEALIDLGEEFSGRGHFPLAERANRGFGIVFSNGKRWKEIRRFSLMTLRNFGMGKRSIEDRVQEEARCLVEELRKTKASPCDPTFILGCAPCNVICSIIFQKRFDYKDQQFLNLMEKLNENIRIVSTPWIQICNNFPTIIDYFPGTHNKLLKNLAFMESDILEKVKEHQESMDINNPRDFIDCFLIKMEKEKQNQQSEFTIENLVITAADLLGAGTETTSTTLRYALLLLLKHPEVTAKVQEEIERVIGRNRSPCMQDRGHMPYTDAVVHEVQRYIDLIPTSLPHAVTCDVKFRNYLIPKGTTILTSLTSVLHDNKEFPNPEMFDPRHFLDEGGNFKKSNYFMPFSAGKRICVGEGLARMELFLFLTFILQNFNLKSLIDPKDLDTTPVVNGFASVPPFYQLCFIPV
T1 sequence (P10632 whole entry): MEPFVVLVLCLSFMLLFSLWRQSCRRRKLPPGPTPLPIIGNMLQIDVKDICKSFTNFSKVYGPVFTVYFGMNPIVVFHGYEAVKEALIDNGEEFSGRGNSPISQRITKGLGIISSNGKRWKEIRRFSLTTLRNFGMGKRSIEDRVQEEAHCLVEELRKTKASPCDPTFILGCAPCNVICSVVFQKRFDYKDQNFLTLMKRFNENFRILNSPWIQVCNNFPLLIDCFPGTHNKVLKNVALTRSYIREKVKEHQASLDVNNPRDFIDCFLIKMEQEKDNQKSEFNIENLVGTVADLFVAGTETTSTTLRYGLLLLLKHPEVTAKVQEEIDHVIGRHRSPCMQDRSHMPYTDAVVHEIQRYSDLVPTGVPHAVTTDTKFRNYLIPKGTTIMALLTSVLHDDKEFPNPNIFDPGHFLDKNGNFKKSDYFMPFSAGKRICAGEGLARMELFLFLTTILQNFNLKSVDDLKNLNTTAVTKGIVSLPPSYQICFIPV

COc1cc(O[C@H]2C(C)(C)[C@H](NC(=O)c3ccc(N4CCC(CN5CCN(c6ccc(C(=O)N[C@H]7CCC(=O)NC7=O)c(F)c6)CC5)CC4)cc3)C2(C)C)ccc1C#N [Compound A, 4-(4-((1-(4-(((1R,3R)-3-(4-cyano-3-methoxyphenoxy)-2,2,4,4-tetramethylcyclobutyl)carbamoyl)phenyl)piperidin-4-yl)methyl)piperazin-1-yl)-N—((S)-2,6-dioxopiperidin-3-yl)-2-fluorobenzamide]
CYP2C8 mRNA Fold induction (CYP2C8 mRNA; Donor 1, 0.03-30 μM, 48 hours): <2 Fold
CYP2C8 mRNA Fold induction (CYP2C8 mRNA; Donor 2, 0.03-30 μM, 48 hours): <2 Fold
CYP2C8 mRNA induction, % PC (CYP2C8 mRNA; Donor 3, % of positive control response, at 0.1 μM): 28 % PC
CYP2C8 mRNA Fold induction (CYP2C8 mRNA; Donor 3, maximal, at 0.1 μM): 3.1 Fold
IC50 (CYP2C8; [1]): > 15 µM
IC50 (CYP2C8; [2]): > 15 µM
IC50 (OATP1B3): > 3.75 µM
CYP2C19 mRNA Fold induction (CYP2C19 mRNA; Donor 1, 0.03-30 μM): <2 Fold
CYP2C19 mRNA Fold induction (CYP2C19 mRNA; Donor 2, 0.03-30 μM): <2 Fold
CYP2C19 mRNA Fold induction (CYP2C19 mRNA; Donor 3, 0.03-30 μM): <2 Fold
IC50 (CYP2C19; [1]): > 15 µM
IC50 (CYP2C19; [2]): > 15 µM
Hepatocyte viability (human hepatocytes): no significant decrease
IC50 (OATP1B1): > 3.75 µM
